Test results published in USRE39197E1, “Cell adhesion-inhibiting antiinflammatory and immune-suppressive compounds” (Abbott Laboratories, priority 1998, dated 2006).

What was measured:
[1] = biological target: T1, interaction between the integrin LFA-1 and its adhesion partner ICAM-1 (Homo sapiens, UniProt P20701); experiment: ICAM-1/LFA-1 Biochemical Interaction Assay; type: binding; settings: 4 μM compound; recombinant LFA-1, biotinylated ICAM-1/Ig
T1 construct: Recombinant LFA-1 (100 μL of 0.7 μg/ml mL, ICOS Corporation) in D-PBS; purchased ICOS Corporation
T1 sequence (P20701 26-1170): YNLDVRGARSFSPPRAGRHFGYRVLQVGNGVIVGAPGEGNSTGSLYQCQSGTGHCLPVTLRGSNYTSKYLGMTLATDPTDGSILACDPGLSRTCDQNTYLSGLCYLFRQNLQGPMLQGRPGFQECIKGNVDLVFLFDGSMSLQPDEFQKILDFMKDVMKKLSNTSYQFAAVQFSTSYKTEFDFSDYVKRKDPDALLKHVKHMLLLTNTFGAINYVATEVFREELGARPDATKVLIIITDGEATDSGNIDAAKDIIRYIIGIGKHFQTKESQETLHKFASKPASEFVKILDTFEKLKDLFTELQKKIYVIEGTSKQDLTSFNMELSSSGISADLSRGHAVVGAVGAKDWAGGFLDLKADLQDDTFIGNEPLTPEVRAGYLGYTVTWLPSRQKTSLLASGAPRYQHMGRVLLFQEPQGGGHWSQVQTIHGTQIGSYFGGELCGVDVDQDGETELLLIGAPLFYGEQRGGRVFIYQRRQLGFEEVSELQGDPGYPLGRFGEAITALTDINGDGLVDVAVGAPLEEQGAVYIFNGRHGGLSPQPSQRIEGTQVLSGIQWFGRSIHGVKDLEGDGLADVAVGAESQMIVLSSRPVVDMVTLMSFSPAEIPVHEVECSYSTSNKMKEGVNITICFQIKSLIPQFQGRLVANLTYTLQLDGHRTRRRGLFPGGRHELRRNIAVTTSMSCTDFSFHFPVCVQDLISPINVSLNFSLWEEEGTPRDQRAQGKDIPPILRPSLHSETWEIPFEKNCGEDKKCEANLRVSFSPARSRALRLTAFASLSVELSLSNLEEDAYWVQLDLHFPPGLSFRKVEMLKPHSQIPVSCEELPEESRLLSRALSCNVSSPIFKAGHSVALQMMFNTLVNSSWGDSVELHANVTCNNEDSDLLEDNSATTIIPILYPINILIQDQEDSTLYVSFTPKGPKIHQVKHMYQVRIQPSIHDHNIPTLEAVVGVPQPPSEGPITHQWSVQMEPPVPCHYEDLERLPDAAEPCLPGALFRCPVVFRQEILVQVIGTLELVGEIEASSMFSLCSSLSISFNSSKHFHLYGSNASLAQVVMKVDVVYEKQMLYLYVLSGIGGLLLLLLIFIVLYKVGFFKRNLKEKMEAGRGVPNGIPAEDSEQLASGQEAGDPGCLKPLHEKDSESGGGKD
T1 sequence (P05107 23-769 partner): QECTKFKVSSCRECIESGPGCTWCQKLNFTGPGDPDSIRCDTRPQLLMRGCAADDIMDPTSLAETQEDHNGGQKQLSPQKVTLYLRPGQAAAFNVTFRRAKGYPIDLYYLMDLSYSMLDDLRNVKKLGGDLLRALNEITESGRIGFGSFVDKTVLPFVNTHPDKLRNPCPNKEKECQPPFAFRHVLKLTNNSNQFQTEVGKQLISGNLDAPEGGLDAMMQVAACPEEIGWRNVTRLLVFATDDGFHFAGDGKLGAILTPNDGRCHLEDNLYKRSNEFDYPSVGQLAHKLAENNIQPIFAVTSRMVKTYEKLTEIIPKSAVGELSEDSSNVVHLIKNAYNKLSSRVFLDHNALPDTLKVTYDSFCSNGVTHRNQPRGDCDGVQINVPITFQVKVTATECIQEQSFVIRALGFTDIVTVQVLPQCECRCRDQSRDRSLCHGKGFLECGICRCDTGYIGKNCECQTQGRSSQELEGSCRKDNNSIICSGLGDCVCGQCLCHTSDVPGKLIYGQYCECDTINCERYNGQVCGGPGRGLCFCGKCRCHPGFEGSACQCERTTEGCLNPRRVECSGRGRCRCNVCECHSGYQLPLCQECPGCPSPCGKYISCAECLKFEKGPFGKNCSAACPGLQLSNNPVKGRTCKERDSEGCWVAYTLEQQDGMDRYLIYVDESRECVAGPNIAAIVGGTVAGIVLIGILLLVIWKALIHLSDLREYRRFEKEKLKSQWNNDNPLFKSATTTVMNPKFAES
Method: Compounds that antagonize the interaction between ICAM-1 and LFA-1 can be identified, and their activities quantitated, using both biochemical and cell-based adhesion assays. A primary biochemical assay measures the ability of the compound in question to block the interaction between the integrin LFA-1 and its adhesion partner ICAM-1, as described below:
ICAM-1/LFA-1 Biochemical Interaction Assay
In the biochemical assay, 100 μL of anti-LFA-1 antibody (ICOS Corporation) at a concentration of 5 μg/ml mL in Dulbecco's phosphate-buffered saaline (D-PBS) is used to coat wells of a 96-well microtiter plate overnight at 4° C. The wells are were then washed twice with wash buffer (D-PBS w/o Ca^++ or Mg^++, 0.05% Tween 20) and blocked by addition of 200 μL of D-PBS, 5% fish skin gelatin. Recombinant LFA-1 (100 μL of 0.7 μg/ml mL, ICOS Corporation) in D-PBS is was then added to each well. Incubation continues continued for 1 hour at room temperature and the wells are were washed twice with wash buffer. Serial dilutions of compounds being assayed as ICAM-1/LFA-1 antagonists, were prepared as 10 mM stock solutions in dimethyl sulfoxide (DMSO), are were diluted in D-PBS, 2 mM MgCl2, 1% fish skin gelatin and 50 μL of each dilution was added to duplicate wells. This is was followed by the addition of 50 μL of 0.8 μg/ml mL biotinylated recombinant ICAM-1/Ig (ICOS Corporation) to the wells and the plates are were incubated at room temperature for 1 hour. The wells are were then washed twice with wash buffer and 100 μL of Europium-labeled Streptavidin (Wallac Oy) diluted 1:100 in Delfia assay buffer (Wallac Oy), are was then added to the wells. Incubation proceeds proceeded for 1 hour at room temperature. The wells are were washed eight times with wash buffer and 100 μL of enhancement solution (Wallac Oy, cat. No. 1244-105) are was added to each well. Incubation proceeds proceeded for 5 minutes with constant mixing. Time-resolved fluorimetry measurements are were made using the a Victor 1420 Multilabel Counter (Wallac Oy) and the percent inhibition of each candidate compound is was calculated using the following equation: [formula] where “background” refers to wells that are were not coated with anti-LFA-1 antibody.

[2] = test system: adherence of JY-8 cells (expressing LFA-1) to immobilized ICAM-1; experiment: ICAM-1/JY-8 Cell Adhesion Assay; type: cell-based, human
Method: ICAM-1/JT-8 Cell Adhesion Assay
For measurment measurement of inhibotory inhibitory activity in the cell-based adhesion assay, 96-well microtiter plates are were coated with 70 μL of recombinat recombinant ICAM-1/Ig (ICOS Corporation) at a concentration of 5 μg/mL in D-PBS w/o without Ca^++ or Mg++ or Mg^++ overnight at 4° C. The wells are were then washed twice with D-PBS and blocked by addition of 200 μL of D-PBS, 5% fish skin gelatin by incubation for 1 hour at room temperature. […] The percent inhibition of a candidate compound at a given concentration is was calculated using the following equation: [formula] and these concentration/inhibition data are were used to generate does response curves, from which IC50 values are were derived.

[3] = test system: adhesion of JY-8 cells (expressing LFA-1) to immobilized ICAM-3; experiment: ICAM-3/JY-8 Cell Adhesion Assay; type: cell-based, human; settings: 0.6 μM compound, JY-8 cells on immobilized ICAM-3/Ig; for inhibition at 0.6 µM: Homo sapiens
Method: As such, it is expected that these compounds should block the interaction of LFA-1 with other CAM's. […] Compounds of the present invention may be evaluated for their ability to block the adhesion of JY-8 cells (a human EBV-transformed B cell line expressing LFA-1 on its surface) to immobilized ICAM-3, as follows:
ICAM-3/JY-8 Cell Adhesion Assay
For measurement of inhibitory activity in the cell-based adhesion assay, 96-well microtiter plates are were coated with 50 μL of recombinant ICAM-3/Ig (ICOS Corporation) at a concentration of 10 μg/mL in D-PBS w/o without Ca^++ or Mg^++ overnight at 4° C. The wells are were then washed twice with D-PBS, blocked by addition of 100 μL of D-PBS, 1% bovine serum albumin (BSA) by incubation for 1 hour at room temperature, and washed once with RPMI-1640/5% heat-inactivated fetal bovine serum (adhesion buffer). Dilutions of compounds to be assayed for ICAM-3/LFA-1 antagonistic activity are were prepared in adhesion buffer from 10 mM stock solutions in DMSO and 100 μL are were added to duplicate wells. JY-8 cells (a human EBV-transformed B cell line expressing LFA-1 on its surface; 100 μL at 0.75×10^6 cells/ml mL in adhesion buffer) are were then added to the wells. Microtiter plates are were incubated for 30 minutes at room temperature; the adherent cells are were then fixed with 50 μL of 14% glutaraldehyde/D-PBS and were incubated for an additional 90 minutes. The wells are were washed gently with dH2O; 50 μL of dH2O is was added, following followed by 50 μL of 1% crystal violet. After 5 minutes the plates are were washed 3× times with dH2O; 75 μL of dH2O and 225 μL of 95% EtOH are were added to each well to extract the crystal violet from the cells. Absorbance is was measured at […] in an ELISA plate reader. The percent inhibition of a candidate compound is was calculated using the following equation. [formula]

[4] = Homo sapiens, JY-8, JY-8 cells on immobilized ICAM-1/Ig
[5] = JY-8 cells on immobilized ICAM-1/Ig

inhibition at 4 µM [1] [%] | IC50 [2, 4] [nM] | IC50 [2, 5] [nM] | % inhibition @ 4 μM [1] [%] | Molecule | other results
91 | 70 | – | – | CC(=O)N1CCN(C(=O)/C=C/c2ccc(Sc3cccc(Cl)c3Cl)c([N+](=O)[O-])c2)CC1 [Example 34, (2,3-Dichlorophenyl)[2-nitro-4-(E-((4-acetylpiperazin-1-yl)carbonyl)ethenyl)phenyl]sulfide] | inhibition at 0.6 µM [3]: 100%
– | – | 360 | – | O=C(/C=C/c1ccc(Sc2ccccc2CN2CCN(Cc3ccc4c(c3)OCO4)CC2)c(Cl)c1)N1CCOCC1 [Example 54, (2-(4-(1,3-Benzodioxolyl-5-methyl)piperazin-1-ylmethyl)phenyl)[2-chloro-4-(E-((1-morpholinyl)carbonyl)ethenyl)phenyl]sulfide] | % inhibition @ 0.6 μM [3]: 100%
92 | – | – | – | CC(=O)N1CCN(C(=O)/C=C/c2ccc(Sc3ccc(Cl)cc3Cl)c([N+](=O)[O-])c2)CC1 [Example 32, (2,4-Dichlorophenyl)[2-nitro-4-(E-((4-acetylpiperazin-1-yl)carbonyl)ethenyl)phenyl]sulfide] | inhibition at 0.6 µM [3]: 100%
– | – | 11000 | 82 | O=C(/C=C/c1ccc(Sc2ccccc2Br)c(Cl)c1)N1CCc2ccccc2C1 [Example 25, (2-Bromophenyl)[2-chloro-4-(E-((2-tetrahydroisoquinolinyl)carbonyl)ethenyl)phenyl]sulfide] | –
– | – | 220 | 90 | O=Cc1ccccc1Sc1ccc(/C=C/C(=O)N2CCOCC2)cc1Cl [Example 57, (2-Formylphenyl)[2-chloro-4-(E-((1-morpholinyl)carbonyl)ethenyl)phenyl]sulfide] | –
– | – | 370 | 87 | Cc1ccccc1Sc1ccc(/C=C/C(=O)NCCN2CCOCC2)cc1C(F)(F)F [Example 28, (2-Methylphenyl)[2-trifluoromethyl-4-(E-((2-(1-morpholinyl)ethylamino)carbonyl)ethenyl)phenyl]sulfide] | –
75 | 2500 | – | – | O=C(/C=C/c1ccc(Sc2ccc(Cl)cc2Cl)c(Cl)c1)NCCO [Example 3, (2,4-Dichlorophenyl)[2-chloro-4-(E-((2-hydroxyethylamino)carbonyl)ethenyl)phenyl]sulfide] | –
82 | 370 | – | – | CC(=O)N1CCN(C(=O)/C=C/c2ccc(Sc3ccccc3N)c([N+](=O)[O-])c2)CC1 [Example 47, (2-Aminophenyl)[2-nitro-4-(E-((4-acetylpiperazin-1-yl)carbonyl)ethenyl)phenyl]sulfide] | –
90 | 200 | – | – | CC(=O)N1CCCN(C(=O)/C=C/c2ccc(Sc3ccccc3Br)c(Cl)c2)CC1 [Example 22, (2-Bromophenyl)[2-chloro-4-(E-((4-acetylhomopiperazin-1-yl)carbonyl)ethenyl)phenyl]sulfide] | –
– | – | 450 | 93 | O=C(/C=C/c1ccc(Sc2ccccc2Br)c(Cl)c1)N1CCCCC1 [Example 19] | –
75 | 2100 | – | – | O=C(/C=C/c1ccccc1Sc1ccc(Cl)cc1Cl)NCCCCCCO [Example 1, (2,4-Dichlorophenyl)[2-(E-((6-hydroxyhexylamino)carbonyl)ethenyl)phenyl]sulfide] | –
84 | 690 | – | – | CC(=O)N1CCN(C(=O)/C=C/c2ccc(Sc3ccccc3C(C)(C)C)c([N+](=O)[O-])c2)CC1 [Example 51, (2-tert-Butylphenyl)[2-nitro-4-(E-((4-acetylpiperazin-1-yl)carbonyl)ethenyl)phenyl]sulfide] | –
– | 10 | – | – | CC(=O)N1CCN(C(=O)/C=C/c2ccc(Sc3ccccc3C(C)C)c([N+](=O)[O-])c2)CC1 [Example 50, (2-iso-Propylphenyl)[2-nitro-4-(E-((4-acetylpiperazin-1-yl)carbonyl)ethenyl)phenyl]sulfide] | inhibition at 0.6 µM [3]: 100%
89 | 200 | – | – | CC(=O)N1CCN(C(=O)/C=C/c2ccc(Sc3ccccc3CO)c([N+](=O)[O-])c2)CC1 [Example 48, (2-Hydroxymethylphenyl)[2-nitro-4-(E-((4-acetylpiperazin-1-yl)carbonyl)ethenyl)phenyl]sulfide] | –
– | – | 200 | – | O=C(/C=C/c1ccc(Sc2ccccc2/C=C/C(=O)N2CCOCC2)c(Cl)c1)N1CCOCC1 [Example 59, (2-(E-((1-Morpholinyl)carbonyl)ethenyl)phenyl)[2-chloro-4-(E-((1-morpholinyl)carbonyl)ethenyl)phenyl]sulfide] | % inhibition @ 0.6 μM [3]: 100%
91 | 250 | – | – | O=C(C(=O)N1CCN(C(=O)/C=C/c2ccc(Sc3ccc(Cl)cc3Cl)c([N+](=O)[O-])c2)CC1)c1ccco1 [Example 38, (2,4-Dichlorophenyl)[2-nitro-4-(E-((4-(2-furoylcarbonyl)piperazin-1-yl)carbonyl)ethenyl)phenyl]sulfide] | –
– | – | 8000 | 80 | O=C(/C=C/c1ccc(Sc2ccccc2Br)c(Cl)c1)N1CCC(n2c(=O)[nH]c3ccccc32)CC1 [Example 24] | –
– | – | 260 | 87 | O=C(/C=C/c1ccc(Sc2ccccc2CO)c(Cl)c1)N1CCOCC1 [Example 11, (2-(Hydroxymethyl)phenyl)[2-chloro-4-(E-((1-morpholinyl)carbonyl)ethenyl)phenyl]sulfide] | –
– | – | 340 | – | O=C(/C=C/c1ccc(Sc2ccccc2NCCCN2CCOCC2)c(Cl)c1)N1CCOCC1 [Example 62, (2-((3-(1-Morpholinyl)propyl)-1-amino)phenyl)[2-chloro-4-(E-((1-morpholinyl)carbonyl)ethenyl)phenyl]sulfide] | % inhibition @ 0.6 μM [3]: 100%
90 | 320 | – | – | CC(=O)N1CCN(C(=O)/C=C/c2ccc(Sc3ccc(C)cc3)c([N+](=O)[O-])c2)CC1 [Example 36, (4-Methylphenyl)[2-nitro-4-(E-((4-acetylpiperazin-1-yl)carbonyl)ethenyl)phenyl]sulfide] | –
– | – | 420 | 86 | (2-Chlorophenyl)[2-chloro-4-(E-((4-acetylpiperazin-1-yl)carbonyl))2-propenyl)phenyl]sulfide [Example 52] | –

Molecule | inhibition at 4 µM [1] [%] | IC50 [2, 4] [nM] | IC50 [2, 5] [nM] | % inhibition @ 4 μM [1] [%] | other results
CC(C)(C)OC(=O)N1CCN(C(=O)/C=C/c2ccc(Sc3ccc(Cl)cc3Cl)c([N+](=O)[O-])c2)CC1 [Example 37, (2,4-Dichlorophenyl)[2-nitro-4-(E-((4-(tert-butoxycarbonyl)piperazin-1-yl)carbonyl)ethenyl)phenyl]sulfide] | 91 | 140 | – | – | –
